Laboratory results: ChEMBL document CHEMBL1909046, “DrugMatrix in vitro pharmacology data”

Tests used:
[1] = DRUGMATRIX: Imidazoline I2, Central radioligand binding (ligand: [3H] Idazoxan); assay type: cell membranes, Rattus norvegicus, Wistar, Cerebral cortex, Membrane; settings: Not Active = under 50% inhibition at 10 µM
[2] = target: T1, Muscarinic acetylcholine receptor M4 (Homo sapiens, UniProt P08173); assay type: cell membranes, CHO-K1, Membrane; settings: cho-k1; further: in other assays of this panel Not Active means under 50% inhibition at 10 µM
T1 sequence (P08173 whole entry): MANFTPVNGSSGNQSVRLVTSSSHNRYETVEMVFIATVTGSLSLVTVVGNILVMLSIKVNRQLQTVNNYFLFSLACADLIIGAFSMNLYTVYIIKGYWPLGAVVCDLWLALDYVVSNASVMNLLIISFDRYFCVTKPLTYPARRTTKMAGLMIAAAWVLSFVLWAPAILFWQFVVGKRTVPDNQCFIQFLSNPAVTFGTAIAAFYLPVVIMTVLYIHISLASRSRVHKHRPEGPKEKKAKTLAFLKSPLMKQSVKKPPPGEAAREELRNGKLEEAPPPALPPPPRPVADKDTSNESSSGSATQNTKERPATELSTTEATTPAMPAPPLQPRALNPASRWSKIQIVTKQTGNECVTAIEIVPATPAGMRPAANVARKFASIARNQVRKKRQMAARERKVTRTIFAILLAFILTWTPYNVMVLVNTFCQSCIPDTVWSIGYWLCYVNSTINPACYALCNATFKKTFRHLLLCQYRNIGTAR

Melanocortin receptor 3 = Melanocortin receptor 3 (Homo sapiens, UniProt P41968); assay type: cell membranes, Membrane; settings: hek293; further: in other assays of this panel Not Active means under 50% inhibition at 10 µM
Sequence of Melanocortin receptor 3 (P41968 whole entry): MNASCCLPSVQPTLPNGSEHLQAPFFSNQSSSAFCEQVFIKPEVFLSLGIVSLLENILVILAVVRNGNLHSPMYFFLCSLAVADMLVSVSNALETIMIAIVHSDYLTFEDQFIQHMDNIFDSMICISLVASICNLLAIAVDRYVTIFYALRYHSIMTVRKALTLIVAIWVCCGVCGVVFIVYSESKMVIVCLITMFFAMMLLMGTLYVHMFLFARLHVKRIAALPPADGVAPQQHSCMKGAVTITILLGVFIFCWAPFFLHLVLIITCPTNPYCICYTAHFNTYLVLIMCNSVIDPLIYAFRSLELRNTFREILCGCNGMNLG

Estrogen receptor beta = Estrogen receptor beta (Homo sapiens, UniProt Q92731); settings: sf9; further: in other assays of this panel Not Active means under 50% inhibition at 10 µM
Sequence of Estrogen receptor beta (Q92731 whole entry): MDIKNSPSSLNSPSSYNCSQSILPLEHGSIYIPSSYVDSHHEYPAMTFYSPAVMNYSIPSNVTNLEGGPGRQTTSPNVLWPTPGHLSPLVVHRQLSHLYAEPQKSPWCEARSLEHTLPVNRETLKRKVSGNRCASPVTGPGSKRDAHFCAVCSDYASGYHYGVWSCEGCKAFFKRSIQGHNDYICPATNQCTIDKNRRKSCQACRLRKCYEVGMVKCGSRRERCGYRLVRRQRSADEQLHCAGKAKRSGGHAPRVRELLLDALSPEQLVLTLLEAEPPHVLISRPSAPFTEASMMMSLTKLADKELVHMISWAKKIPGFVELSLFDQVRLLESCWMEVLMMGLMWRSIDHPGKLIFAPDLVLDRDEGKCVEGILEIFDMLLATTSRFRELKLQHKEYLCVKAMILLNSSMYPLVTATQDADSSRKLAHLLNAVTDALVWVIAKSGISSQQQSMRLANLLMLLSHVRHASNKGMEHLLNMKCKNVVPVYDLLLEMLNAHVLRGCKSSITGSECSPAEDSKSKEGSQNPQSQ

[3] = target: T2, C-X-C chemokine receptor type 1 (Homo sapiens, UniProt P25024); further: in other assays of this panel Not Active means under 50% inhibition at 10 µM
T2 sequence (P25024 whole entry): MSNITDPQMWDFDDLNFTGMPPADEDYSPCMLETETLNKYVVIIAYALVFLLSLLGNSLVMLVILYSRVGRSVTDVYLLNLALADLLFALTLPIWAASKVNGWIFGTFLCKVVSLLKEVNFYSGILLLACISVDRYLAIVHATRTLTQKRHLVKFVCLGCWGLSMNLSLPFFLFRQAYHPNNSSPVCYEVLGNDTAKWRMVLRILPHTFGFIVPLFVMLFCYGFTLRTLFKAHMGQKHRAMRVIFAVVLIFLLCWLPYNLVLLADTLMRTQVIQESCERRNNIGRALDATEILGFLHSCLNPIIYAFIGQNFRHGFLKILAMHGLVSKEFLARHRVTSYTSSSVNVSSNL

[4] = target: 5-hydroxytryptamine receptor 4 (Cavia porcellus, UniProt O70528); assay type: cell membranes, Dunkin-Hartley, Striatum, Membrane; further: in other assays of this panel Not Active means under 50% inhibition at 10 µM
Sequence of 5-hydroxytryptamine receptor 4 (O70528 whole entry): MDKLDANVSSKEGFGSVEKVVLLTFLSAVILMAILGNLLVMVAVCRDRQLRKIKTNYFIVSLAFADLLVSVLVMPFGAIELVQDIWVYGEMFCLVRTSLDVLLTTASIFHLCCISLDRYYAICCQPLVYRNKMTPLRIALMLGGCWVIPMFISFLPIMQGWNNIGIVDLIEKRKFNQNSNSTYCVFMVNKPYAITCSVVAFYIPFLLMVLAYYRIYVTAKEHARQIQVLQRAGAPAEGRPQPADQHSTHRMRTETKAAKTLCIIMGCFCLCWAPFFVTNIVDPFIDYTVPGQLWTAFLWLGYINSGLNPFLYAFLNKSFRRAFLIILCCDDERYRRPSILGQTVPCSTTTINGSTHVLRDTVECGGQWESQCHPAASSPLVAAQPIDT

[5] = target: T3, Cholecystokinin receptor type A (Homo sapiens, UniProt P32238); assay type: cell membranes, Membrane; settings: 1321-n1; further: in other assays of this panel Not Active means under 50% inhibition at 10 µM
T3 sequence (P32238 whole entry): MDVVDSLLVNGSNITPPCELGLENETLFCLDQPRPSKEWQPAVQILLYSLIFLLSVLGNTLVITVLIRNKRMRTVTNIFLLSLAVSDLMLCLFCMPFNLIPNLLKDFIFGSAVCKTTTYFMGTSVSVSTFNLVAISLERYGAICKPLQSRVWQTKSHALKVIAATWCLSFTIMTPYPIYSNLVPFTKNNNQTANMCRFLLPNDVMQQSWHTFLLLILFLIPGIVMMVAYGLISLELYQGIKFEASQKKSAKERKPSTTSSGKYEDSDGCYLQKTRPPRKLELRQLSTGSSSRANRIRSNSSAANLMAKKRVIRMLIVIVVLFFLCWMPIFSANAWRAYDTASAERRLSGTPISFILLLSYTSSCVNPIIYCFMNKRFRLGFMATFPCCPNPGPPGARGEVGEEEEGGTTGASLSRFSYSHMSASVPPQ

Histamine H2 receptor = Histamine H2 receptor (Homo sapiens, UniProt P25021); assay type: cell membranes, CHO-K1, Membrane; settings: cho-k1; further: in other assays of this panel Not Active means under 50% inhibition at 10 µM
Sequence of Histamine H2 receptor (P25021 whole entry): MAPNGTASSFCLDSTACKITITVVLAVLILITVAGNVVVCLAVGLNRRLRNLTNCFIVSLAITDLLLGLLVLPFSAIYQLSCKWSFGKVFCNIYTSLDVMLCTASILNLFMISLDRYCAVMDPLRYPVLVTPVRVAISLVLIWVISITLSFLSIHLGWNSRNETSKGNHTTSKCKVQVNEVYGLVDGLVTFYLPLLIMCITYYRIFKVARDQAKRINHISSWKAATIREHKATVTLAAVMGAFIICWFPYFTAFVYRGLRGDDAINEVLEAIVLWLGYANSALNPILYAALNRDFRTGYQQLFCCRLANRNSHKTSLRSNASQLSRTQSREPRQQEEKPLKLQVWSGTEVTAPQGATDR

Cytochrome P450 1A2 = target: T4, Cytochrome P450 1A2 (Homo sapiens, UniProt P05177); settings: bti-tn-5b1-4; further: in other assays of this panel Not Active means under 50% inhibition at 10 µM
T4 sequence (P05177 whole entry): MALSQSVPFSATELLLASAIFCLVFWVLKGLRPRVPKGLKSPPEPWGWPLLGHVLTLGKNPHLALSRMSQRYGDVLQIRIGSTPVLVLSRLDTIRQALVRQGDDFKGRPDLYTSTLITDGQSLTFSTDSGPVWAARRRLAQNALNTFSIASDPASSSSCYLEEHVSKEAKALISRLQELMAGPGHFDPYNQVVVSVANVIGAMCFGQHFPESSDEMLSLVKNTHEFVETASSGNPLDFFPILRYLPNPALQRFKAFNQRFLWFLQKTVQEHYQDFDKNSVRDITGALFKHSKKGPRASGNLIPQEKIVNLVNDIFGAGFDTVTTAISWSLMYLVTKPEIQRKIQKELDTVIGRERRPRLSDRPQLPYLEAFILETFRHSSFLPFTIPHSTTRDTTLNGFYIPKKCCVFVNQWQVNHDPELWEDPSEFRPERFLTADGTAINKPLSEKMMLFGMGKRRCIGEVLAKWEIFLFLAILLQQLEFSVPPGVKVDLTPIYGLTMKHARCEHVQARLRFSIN

Insulin receptor = Insulin receptor (Rattus norvegicus, UniProt P15127); assay type: cell membranes, Wistar, Liver, Membrane; further: in other assays of this panel Not Active means under 50% inhibition at 10 µM
Sequence of Insulin receptor (P15127 27-759 limits assumed): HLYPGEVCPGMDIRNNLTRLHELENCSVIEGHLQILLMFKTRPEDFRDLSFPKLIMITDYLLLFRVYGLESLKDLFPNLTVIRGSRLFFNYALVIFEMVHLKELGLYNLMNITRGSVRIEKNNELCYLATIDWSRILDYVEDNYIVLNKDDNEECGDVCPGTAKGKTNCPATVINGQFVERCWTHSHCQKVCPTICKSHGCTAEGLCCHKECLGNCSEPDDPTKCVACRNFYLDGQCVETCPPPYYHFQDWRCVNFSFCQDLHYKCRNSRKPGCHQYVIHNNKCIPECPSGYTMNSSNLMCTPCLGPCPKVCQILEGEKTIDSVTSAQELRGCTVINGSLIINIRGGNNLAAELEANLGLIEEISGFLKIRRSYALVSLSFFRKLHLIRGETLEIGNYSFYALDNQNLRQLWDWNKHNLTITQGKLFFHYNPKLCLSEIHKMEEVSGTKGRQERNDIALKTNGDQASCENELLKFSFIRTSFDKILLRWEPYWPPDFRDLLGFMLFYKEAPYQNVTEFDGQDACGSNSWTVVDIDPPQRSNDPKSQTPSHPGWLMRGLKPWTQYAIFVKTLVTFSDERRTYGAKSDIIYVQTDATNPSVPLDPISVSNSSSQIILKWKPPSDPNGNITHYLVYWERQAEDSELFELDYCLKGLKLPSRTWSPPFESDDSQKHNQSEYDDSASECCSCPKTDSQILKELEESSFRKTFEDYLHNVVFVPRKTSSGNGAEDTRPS
Sequence of Insulin receptor (P15127 764-1383 limits assumed): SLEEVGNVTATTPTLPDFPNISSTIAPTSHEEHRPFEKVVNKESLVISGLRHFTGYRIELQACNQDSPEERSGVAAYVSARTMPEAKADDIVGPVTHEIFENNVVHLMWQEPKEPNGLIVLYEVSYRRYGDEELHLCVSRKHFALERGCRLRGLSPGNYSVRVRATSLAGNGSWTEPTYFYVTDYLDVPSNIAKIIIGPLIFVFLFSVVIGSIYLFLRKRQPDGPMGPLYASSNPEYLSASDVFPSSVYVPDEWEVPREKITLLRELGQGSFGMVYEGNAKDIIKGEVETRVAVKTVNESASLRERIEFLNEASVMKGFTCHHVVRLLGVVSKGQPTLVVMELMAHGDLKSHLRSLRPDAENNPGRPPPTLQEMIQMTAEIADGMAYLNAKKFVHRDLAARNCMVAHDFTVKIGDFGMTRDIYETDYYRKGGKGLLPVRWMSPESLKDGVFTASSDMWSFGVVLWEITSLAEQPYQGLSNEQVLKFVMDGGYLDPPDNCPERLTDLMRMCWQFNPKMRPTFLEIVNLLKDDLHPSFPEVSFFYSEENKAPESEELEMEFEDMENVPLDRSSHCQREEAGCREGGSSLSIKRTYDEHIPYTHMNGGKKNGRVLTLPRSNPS

[6] = target: Beta-2 adrenergic receptor (Homo sapiens, UniProt P07550); assay: DRUGMATRIX: Adrenergic beta2 radioligand binding (ligand: [3H] CGP-12177); assay type: cell membranes, Membrane; settings: cho; Not Active = under 50% inhibition at 10 µM
[7] = DRUGMATRIX: Leukotriene, BLT (LTB4) radioligand binding (ligand: [3H]LTB4); assay type: cell membranes, Membrane; settings: u-937; Not Active = under 50% inhibition at 10 µM
Cytochrome P450 2D6 = Cytochrome P450 2D6 (Homo sapiens, UniProt P10635); settings: bti-tn-5b1-4; further: in other assays of this panel Not Active means under 50% inhibition at 10 µM
Sequence of Cytochrome P450 2D6 (P10635 whole entry): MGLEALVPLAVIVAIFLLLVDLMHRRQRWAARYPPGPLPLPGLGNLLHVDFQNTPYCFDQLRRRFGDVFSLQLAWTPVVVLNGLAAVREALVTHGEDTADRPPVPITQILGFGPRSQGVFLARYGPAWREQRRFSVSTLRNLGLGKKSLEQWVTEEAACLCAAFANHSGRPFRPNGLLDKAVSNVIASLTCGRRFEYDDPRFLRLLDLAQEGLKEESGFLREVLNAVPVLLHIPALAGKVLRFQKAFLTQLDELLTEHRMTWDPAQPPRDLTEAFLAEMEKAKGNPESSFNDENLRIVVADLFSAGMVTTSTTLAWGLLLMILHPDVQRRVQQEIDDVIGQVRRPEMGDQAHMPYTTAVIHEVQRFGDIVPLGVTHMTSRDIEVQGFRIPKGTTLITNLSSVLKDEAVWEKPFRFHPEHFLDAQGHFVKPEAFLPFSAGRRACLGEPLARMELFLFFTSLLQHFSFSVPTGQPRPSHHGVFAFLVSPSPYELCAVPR

[8] = DRUGMATRIX: Sodium/nucleoside co-transporter radioligand binding (ligand: nitrobenzylthioinosine); assay type: cell membranes, Cavia porcellus, Dunkin-Hartley, Cerebral cortex, Membrane; settings: Not Active = under 50% inhibition at 10 µM

O=C1CN=C(c2ccccc2)c2cc([N+](=O)[O-])ccc2N1 [NITRAZEPAM]
Not Active: IC50 [1] | Ki [1] | IC50 [2] | IC50 (Melanocortin receptor 3) | IC50 (Estrogen receptor beta) | IC50 [3] | IC50 [4] | IC50 [5] | IC50 (Histamine H2 receptor) | IC50 (Cytochrome P450 1A2) | Ki (Cytochrome P450 1A2) | IC50 (Insulin receptor) | IC50 [6] | IC50 [7] | Ki [7] | IC50 (Cytochrome P450 2D6) | Ki (Cytochrome P450 2D6) | IC50 [8] | Ki [8]

CC(=O)CCCCn1c(=O)c2c(ncn2C)n(C)c1=O [PENTOXIFYLLINE]
Not Active: IC50 [1] | Ki [1] | IC50 [2] | IC50 (Melanocortin receptor 3) | IC50 (Estrogen receptor beta) | IC50 [3] | IC50 [4] | IC50 [5] | IC50 (Histamine H2 receptor) | IC50 (Cytochrome P450 1A2) | Ki (Cytochrome P450 1A2) | IC50 (Insulin receptor) | IC50 [6] | IC50 [7] | Ki [7] | IC50 (Cytochrome P450 2D6) | Ki (Cytochrome P450 2D6) | IC50 [8] | Ki [8]

C=C1C(=O)O[C@@H]2C3O[C@]3(C)CC/C=C(\C)CC[C@@H]12 (stereo not given in full)
Not Active: IC50 [1] | Ki [1] | IC50 [2] | IC50 (Melanocortin receptor 3) | IC50 (Estrogen receptor beta) | IC50 [3] | IC50 [4] | IC50 [5] | IC50 (Histamine H2 receptor) | IC50 (Cytochrome P450 1A2) | Ki (Cytochrome P450 1A2) | IC50 (Insulin receptor) | IC50 [6] | IC50 [7] | Ki [7] | IC50 (Cytochrome P450 2D6) | Ki (Cytochrome P450 2D6) | IC50 [8] | Ki [8]

C=C(C)[C@@H]1[C@H]2OC(=O)[C@@H]1[C@]1(O)C[C@H]3O[C@]34C(=O)O[C@H]2[C@]14C [PICROTOXININ]
Not Active: IC50 [1] | Ki [1] | IC50 [2] | IC50 (Melanocortin receptor 3) | IC50 (Estrogen receptor beta) | IC50 [3] | IC50 [4] | IC50 [5] | IC50 (Histamine H2 receptor) | IC50 (Cytochrome P450 1A2) | Ki (Cytochrome P450 1A2) | IC50 (Insulin receptor) | IC50 [6] | IC50 [7] | Ki [7] | IC50 (Cytochrome P450 2D6) | Ki (Cytochrome P450 2D6) | IC50 [8] | Ki [8]

CARBOPLATIN
Not Active: IC50 [1] | Ki [1] | IC50 [2] | Ki [2] | IC50 (Melanocortin receptor 3) | Ki (Melanocortin receptor 3) | IC50 (Estrogen receptor beta) | Ki (Estrogen receptor beta) | IC50 [3] | Ki [3] | IC50 [4] | Ki [4] | IC50 [5] | Ki [5] | IC50 (Histamine H2 receptor) | Ki (Histamine H2 receptor) | IC50 (Cytochrome P450 1A2) | Ki (Cytochrome P450 1A2) | IC50 (Insulin receptor) | Ki (Insulin receptor) | IC50 [6] | Ki [6] | IC50 [7] | Ki [7] | IC50 (Cytochrome P450 2D6) | Ki (Cytochrome P450 2D6) | IC50 [8] | Ki [8]

Cc1ccccc1N1CCN(CCc2nnc3n2CCCC3)CC1 [DAPIPRAZOLE]
Not Active: IC50 [1] | Ki [1] | IC50 [2] | IC50 (Melanocortin receptor 3) | IC50 (Estrogen receptor beta) | IC50 [3] | IC50 [4] | IC50 [5] | IC50 (Histamine H2 receptor) | IC50 (Cytochrome P450 1A2) | Ki (Cytochrome P450 1A2) | IC50 (Insulin receptor) | IC50 [6] | IC50 [7] | Ki [7] | IC50 (Cytochrome P450 2D6) | Ki (Cytochrome P450 2D6) | IC50 [8] | Ki [8]

CC[C@@]1(O)C(=O)OCc2c1cc1n(c2=O)Cc2cc3ccccc3nc2-1 [CAMPTOTHECIN]
Not Active: IC50 [1] | Ki [1] | IC50 [2] | IC50 (Melanocortin receptor 3) | IC50 (Estrogen receptor beta) | IC50 [3] | IC50 [4] | IC50 [5] | IC50 (Histamine H2 receptor) | IC50 (Cytochrome P450 1A2) | Ki (Cytochrome P450 1A2) | IC50 (Insulin receptor) | IC50 [6] | IC50 [7] | Ki [7] | IC50 (Cytochrome P450 2D6) | Ki (Cytochrome P450 2D6) | IC50 [8] | Ki [8]

CISPLATIN
Not Active: IC50 [1] | Ki [1] | IC50 [2] | Ki [2] | IC50 (Melanocortin receptor 3) | Ki (Melanocortin receptor 3) | IC50 (Estrogen receptor beta) | Ki (Estrogen receptor beta) | IC50 [3] | Ki [3] | IC50 [4] | Ki [4] | IC50 [5] | Ki [5] | IC50 (Histamine H2 receptor) | Ki (Histamine H2 receptor) | IC50 (Cytochrome P450 1A2) | Ki (Cytochrome P450 1A2) | IC50 (Insulin receptor) | Ki (Insulin receptor) | IC50 [6] | Ki [6] | IC50 [7] | Ki [7] | IC50 (Cytochrome P450 2D6) | Ki (Cytochrome P450 2D6) | IC50 [8] | Ki [8]
